Measured values published in the kinase profiling compilation of Christmann-Franck et al. (2016).

Columns and labels:
Assay in all cases: KINOMEscan competition binding
Conditions in all cases: compound 10.0 µM
[1] = target: GAK (human) (UniProt O14976)
[2] = target: TLK2 (human) (UniProt Q86UE8)
[3] = system: PIK3CA (human), P42336 [H1047L]
[4] = target: IKBKB (human) (UniProt O14920)
[5] = target: STK32B (human) (UniProt Q9NY57)
[6] = target: RET (human) (UniProt P07949)
[7] = target: EPHA7 (human) (UniProt Q15375)
[8] = target: GRK4 (human) (UniProt P32298)
[9] = target: CDK19 (human) (UniProt Q9BWU1)
[10] = target: CDK17 (human) (UniProt Q00537)
[11] = target: ACVR2A (human) (UniProt P27037)
[12] = target: CAMK2G (human) (UniProt Q13555)
[13] = target: PKMYT1 (human) (UniProt Q99640)
[14] = target: ABL2 (human) (UniProt P42684)
[15] = system: ABL1 (human), P00519 [F317I]
[16] = target: TAOK3 (human) (UniProt Q9H2K8)
[17] = target: RPS6KA2 KD2 (human) (UniProt Q15349)
[18] = target: WEE1 (human) (UniProt P30291)
[19] = target: EPHA6 (human) (UniProt Q9UF33)
[20] = system: ABL1 (human), P00519 [Y253F]
[21] = target: MYO3A (human) (UniProt Q8NEV4)
[22] = target: EPHB6 (human) (UniProt O15197)
[23] = target: JAK1 JH2 pseudokinase (human) (UniProt P23458)
[24] = target: JAK1 JH1 catalytic (human) (UniProt P23458)
[25] = target: SLK (human) (UniProt Q9H2G2)
[26] = target: MARK4 (human) (UniProt Q96L34)
[27] = system: RET (human), P07949 [M918T]
[28] = target: PRKD3 (human) (UniProt O94806)
[29] = target: FGFR4 (human) (UniProt P22455)
[30] = target: TYK2 JH1 catalytic (human) (UniProt P29597)
[31] = system: ABL1 (human), P00519 [H396P]
[32] = target: MAPK1 (human) (UniProt P28482)
[33] = target: DAPK1 (human) (UniProt P53355)
[34] = target: TESK1 (human) (UniProt Q15569)
[35] = target: DCLK1 (human) (UniProt O15075)
[36] = target: SYK (human) (UniProt P43405)
[37] = target: ADCK4 (human) (UniProt Q96D53)
[38] = target: TGFBR1 (human) (UniProt P36897)
[39] = target: EPHB4 (human) (UniProt P54760)
[40] = target: AURKC (human) (UniProt Q9UQB9)
[41] = target: AURKB (human) (UniProt Q96GD4)
AURKB (human), sequence (Q96GD4 whole entry, looked up): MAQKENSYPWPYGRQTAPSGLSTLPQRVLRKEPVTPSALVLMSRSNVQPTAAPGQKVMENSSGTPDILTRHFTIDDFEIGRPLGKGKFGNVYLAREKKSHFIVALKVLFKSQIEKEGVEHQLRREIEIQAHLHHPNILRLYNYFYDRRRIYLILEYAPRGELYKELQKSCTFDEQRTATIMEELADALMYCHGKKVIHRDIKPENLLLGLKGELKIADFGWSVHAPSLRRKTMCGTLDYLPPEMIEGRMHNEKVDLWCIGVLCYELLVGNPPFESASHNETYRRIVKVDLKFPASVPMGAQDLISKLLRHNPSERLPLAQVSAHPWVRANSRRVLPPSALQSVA

PKMYT1 (human), sequence (Q99640 whole entry, looked up): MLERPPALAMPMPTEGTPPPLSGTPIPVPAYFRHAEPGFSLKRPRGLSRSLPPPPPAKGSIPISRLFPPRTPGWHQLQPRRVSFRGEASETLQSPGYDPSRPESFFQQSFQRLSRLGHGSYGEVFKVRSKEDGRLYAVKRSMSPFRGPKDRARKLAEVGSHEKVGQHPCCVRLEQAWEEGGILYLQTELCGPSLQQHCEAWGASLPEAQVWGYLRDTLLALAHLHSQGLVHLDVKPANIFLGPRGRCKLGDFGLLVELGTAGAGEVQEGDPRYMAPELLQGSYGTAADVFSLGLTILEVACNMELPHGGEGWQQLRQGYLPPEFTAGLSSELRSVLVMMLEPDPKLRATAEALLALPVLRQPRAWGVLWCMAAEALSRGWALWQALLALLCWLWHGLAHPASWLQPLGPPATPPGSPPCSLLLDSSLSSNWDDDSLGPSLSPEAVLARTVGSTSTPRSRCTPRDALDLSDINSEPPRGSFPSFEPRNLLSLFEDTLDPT
TGFBR1 (human), sequence (P36897 whole entry, looked up): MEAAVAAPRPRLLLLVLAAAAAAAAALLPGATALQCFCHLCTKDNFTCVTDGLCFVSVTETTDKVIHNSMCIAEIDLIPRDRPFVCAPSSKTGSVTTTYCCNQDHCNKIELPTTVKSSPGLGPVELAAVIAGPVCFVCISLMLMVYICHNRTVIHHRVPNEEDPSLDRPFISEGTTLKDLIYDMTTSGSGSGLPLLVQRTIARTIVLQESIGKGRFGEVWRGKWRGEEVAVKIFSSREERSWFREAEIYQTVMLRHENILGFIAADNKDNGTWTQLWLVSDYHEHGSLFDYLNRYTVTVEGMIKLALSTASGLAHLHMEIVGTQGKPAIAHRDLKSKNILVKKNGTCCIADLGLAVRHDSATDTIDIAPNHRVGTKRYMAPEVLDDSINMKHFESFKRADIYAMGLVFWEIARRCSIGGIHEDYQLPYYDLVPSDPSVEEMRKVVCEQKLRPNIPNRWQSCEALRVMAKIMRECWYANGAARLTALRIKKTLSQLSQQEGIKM
PIK3CA (human), P42336 [H1047L], sequence (P42336 whole entry H1047L, looked up): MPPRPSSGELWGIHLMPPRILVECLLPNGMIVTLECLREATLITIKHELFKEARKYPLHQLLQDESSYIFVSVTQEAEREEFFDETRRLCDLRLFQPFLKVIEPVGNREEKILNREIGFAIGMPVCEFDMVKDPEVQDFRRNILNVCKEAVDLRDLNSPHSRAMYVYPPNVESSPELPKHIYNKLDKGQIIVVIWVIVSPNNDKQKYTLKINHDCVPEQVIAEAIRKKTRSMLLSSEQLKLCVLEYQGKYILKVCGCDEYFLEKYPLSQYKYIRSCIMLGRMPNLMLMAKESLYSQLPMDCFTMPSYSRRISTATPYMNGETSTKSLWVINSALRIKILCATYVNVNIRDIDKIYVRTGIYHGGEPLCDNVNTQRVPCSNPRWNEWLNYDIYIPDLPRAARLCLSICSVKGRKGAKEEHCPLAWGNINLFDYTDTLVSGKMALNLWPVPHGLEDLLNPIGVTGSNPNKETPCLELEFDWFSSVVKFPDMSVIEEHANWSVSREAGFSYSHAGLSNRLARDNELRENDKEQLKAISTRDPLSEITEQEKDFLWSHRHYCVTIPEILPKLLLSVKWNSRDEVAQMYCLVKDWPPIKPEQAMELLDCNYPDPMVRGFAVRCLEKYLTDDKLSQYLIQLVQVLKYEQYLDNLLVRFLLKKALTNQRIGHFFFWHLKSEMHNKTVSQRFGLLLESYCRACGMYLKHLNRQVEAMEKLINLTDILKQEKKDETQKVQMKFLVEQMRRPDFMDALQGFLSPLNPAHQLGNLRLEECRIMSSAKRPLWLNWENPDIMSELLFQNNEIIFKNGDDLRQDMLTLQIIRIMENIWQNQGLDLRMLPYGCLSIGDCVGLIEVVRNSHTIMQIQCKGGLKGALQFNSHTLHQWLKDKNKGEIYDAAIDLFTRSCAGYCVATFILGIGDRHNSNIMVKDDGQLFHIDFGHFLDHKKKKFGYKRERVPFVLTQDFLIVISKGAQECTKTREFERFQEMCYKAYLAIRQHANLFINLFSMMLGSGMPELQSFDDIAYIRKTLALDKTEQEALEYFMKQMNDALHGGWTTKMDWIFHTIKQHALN
DAPK1 (human), sequence (P53355 whole entry, looked up): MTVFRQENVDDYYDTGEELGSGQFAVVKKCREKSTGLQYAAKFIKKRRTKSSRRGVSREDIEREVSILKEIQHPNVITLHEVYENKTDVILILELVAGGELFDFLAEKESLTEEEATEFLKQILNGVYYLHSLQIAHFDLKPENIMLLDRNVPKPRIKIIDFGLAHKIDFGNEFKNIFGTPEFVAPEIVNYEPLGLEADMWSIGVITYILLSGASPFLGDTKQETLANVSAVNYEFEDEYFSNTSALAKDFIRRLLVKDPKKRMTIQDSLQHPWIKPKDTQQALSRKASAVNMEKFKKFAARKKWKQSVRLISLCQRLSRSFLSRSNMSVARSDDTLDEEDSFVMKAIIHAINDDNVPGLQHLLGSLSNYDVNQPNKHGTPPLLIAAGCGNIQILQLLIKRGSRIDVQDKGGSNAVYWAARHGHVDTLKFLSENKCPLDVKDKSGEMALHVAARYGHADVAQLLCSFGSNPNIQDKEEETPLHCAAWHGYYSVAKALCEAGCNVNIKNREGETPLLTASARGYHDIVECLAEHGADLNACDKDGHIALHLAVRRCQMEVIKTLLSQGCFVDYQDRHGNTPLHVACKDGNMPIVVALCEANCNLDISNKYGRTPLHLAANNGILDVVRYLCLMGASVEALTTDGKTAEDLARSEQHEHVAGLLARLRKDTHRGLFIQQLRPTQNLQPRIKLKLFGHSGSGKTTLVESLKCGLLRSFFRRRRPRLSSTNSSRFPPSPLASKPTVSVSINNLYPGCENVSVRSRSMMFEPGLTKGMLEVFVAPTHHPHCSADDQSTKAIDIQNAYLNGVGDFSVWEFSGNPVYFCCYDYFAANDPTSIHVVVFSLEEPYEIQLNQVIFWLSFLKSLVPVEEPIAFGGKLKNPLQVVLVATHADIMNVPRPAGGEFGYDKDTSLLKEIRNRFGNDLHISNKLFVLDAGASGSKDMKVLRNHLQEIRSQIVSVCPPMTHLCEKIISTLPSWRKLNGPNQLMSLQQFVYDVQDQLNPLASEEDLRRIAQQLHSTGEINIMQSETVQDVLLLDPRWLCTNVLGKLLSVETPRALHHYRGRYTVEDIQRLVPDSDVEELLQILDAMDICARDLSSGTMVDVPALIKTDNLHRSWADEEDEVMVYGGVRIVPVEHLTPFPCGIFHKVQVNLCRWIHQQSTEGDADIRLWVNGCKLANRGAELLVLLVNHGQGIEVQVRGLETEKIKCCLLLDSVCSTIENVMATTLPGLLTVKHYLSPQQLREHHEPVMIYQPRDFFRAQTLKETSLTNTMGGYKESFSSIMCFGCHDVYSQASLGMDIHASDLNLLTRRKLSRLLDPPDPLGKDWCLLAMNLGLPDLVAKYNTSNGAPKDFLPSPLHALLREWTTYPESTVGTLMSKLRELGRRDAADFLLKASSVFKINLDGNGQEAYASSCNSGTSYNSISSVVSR
RET (human), sequence (P07949 whole entry, looked up): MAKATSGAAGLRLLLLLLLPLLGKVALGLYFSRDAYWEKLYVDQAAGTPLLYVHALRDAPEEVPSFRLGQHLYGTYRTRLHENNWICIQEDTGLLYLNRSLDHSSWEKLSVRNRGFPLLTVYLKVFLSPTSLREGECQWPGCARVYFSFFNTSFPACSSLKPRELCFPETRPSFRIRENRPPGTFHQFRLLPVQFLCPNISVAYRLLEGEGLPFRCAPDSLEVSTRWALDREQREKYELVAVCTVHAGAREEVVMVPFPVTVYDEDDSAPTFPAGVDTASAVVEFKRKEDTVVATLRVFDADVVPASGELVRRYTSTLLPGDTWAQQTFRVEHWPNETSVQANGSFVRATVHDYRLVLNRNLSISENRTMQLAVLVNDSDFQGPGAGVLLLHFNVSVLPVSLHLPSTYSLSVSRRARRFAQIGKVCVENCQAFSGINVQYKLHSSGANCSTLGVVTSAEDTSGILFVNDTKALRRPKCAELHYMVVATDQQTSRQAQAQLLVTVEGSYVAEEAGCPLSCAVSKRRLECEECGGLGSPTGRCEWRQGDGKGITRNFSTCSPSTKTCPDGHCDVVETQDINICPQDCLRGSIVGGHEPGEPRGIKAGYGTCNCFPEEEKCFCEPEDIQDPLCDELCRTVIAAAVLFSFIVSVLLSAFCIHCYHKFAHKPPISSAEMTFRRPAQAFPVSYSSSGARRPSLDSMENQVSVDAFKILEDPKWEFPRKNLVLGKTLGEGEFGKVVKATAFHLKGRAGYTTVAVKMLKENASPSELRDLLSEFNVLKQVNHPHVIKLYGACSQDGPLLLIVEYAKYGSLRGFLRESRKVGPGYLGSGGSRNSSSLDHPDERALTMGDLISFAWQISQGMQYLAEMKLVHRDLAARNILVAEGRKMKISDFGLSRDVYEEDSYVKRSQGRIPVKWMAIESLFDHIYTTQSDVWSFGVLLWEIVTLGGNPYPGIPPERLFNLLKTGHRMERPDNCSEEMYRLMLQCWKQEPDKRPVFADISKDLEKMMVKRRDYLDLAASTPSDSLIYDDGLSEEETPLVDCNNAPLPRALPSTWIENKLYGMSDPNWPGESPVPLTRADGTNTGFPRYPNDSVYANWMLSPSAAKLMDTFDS
RET (human), P07949 [M918T], sequence (P07949 whole entry M918T, looked up): as the sequence (P07949 whole entry, looked up) above, with M918T counted along it

For `O=C1Nc2cc(Br)ccc2/C1=C1/Nc2ccccc2/C1=N\O`, the kinase still bound, per cent of control [1] was 2.1%, the kinase still bound, per cent of control [2] was 56% and the kinase still bound, per cent of control [3] was 100%. The kinase still bound, per cent of control [4] was 78%, the kinase still bound, per cent of control [5] was 100% and the kinase still bound, per cent of control [6] was 0%. It also gave a kinase still bound, per cent of control [7] of 62%, a kinase still bound, per cent of control [8] of 1.8% and a kinase still bound, per cent of control [9] of 100%. The kinase still bound, per cent of control [10] was 12%, the kinase still bound, per cent of control [11] was 41% and the kinase still bound, per cent of control [12] was 8.8%. For the same compound, the kinase still bound, per cent of control [13] was 90%, the kinase still bound, per cent of control [14] was 1.2% and the kinase still bound, per cent of control [15] was 4.2%. It also gave a kinase still bound, per cent of control [16] of 71%, a kinase still bound, per cent of control [17] of 79% and a kinase still bound, per cent of control [18] of 87%. It also gave a kinase still bound, per cent of control [19] of 34%, a kinase still bound, per cent of control [20] of 4.2% and a kinase still bound, per cent of control [21] of 60%. For the same compound, the kinase still bound, per cent of control [22] was 0.3%, the kinase still bound, per cent of control [23] was 48% and the kinase still bound, per cent of control [24] was 42%. It also gave a kinase still bound, per cent of control [25] of 44%, a kinase still bound, per cent of control [26] of 35% and a kinase still bound, per cent of control [27] of 0%. It also gave a kinase still bound, per cent of control [28] of 70%, a kinase still bound, per cent of control [29] of 21% and a kinase still bound, per cent of control [30] of 3%. It also gave a kinase still bound, per cent of control [31] of 4.5%, a kinase still bound, per cent of control [32] of 100% and a kinase still bound, per cent of control [33] of 3.6%. For the same compound, the kinase still bound, per cent of control [34] was 67%, the kinase still bound, per cent of control [35] was 99% and the kinase still bound, per cent of control [36] was 4.6%. The kinase still bound, per cent of control [37] was 57%, the kinase still bound, per cent of control [38] was 83% and the kinase still bound, per cent of control [39] was 48%. It also gave a kinase still bound, per cent of control [40] of 0.75% and a kinase still bound, per cent of control [41] of 2.8%.
